# Measurements taken from US6759408B2 (Wyeth, priority 1999, dated 2004).
# What was measured:
# [1] = test system: rat uterine decidualization; test: Rat decidualization assay; type: in vivo; details: read-out: CV-1 IC50 (mg/kg): Percentage inhibition at the dose specified
# Method: 1. Rat Decidualization Assay
# b. Animals (RACUC Protocol #5002)
# The animals are treated once daily for seven days.
# Uteri are removed and trimmed of fat.
# Body weight: Mean total animal body weight (default-kg)
# Decidual response: [(D-C)/C]×100%
melting point,Structure (SMILES),inhibition in vivo at 10 mg/kg [1] [%]
230 to 231 °C (dec.),"CC1(C)OC(=O)Nc2ccc(-c3csc(C#N)c3)cc21 [Compound 17, 4-(4,4-Dimethyl-2-oxo-1,4-dihydro-2H-benzo[d][1,3]oxazin-6-yl)-thiophene-2-carbonitrile]",
178 to 179 °C,"COc1cccc(-c2ccc3c(c2)C(C)(C(F)(F)F)OC(=O)N3)c1 (centres unmarked) [Example 48, 6-(3-Methoxyphenyl)-4-methyl-4-trifluoromethyl-1,4-dihydro-benzo[d][1,3]oxazin-2-one]",
290 to 291 °C,"CC1(C)OC(=O)Nc2ccc(-c3cncc(C#N)c3)cc21 [Example 16, 5-(4,4-Dimethyl-2-oxo-1,4-dihydro-2H-benzo[d][1,3]oxazin-6-yl)-nicotinonitrile]",
236 to 237 °C,"CC1(C)OC(=O)Nc2ccc(-c3cccc(C#N)c3)cc21 [Example 12, 3-(4,4-Dimethyl-2-oxo-1,4-dihydro-2H-benzo[d][1,3]oxazin-6-yl)-benzonitrile]",
184 to 185 °C,"CC#CC1(C)OC(=O)Nc2ccc(-c3cccc(Cl)c3)cc21 (centres unmarked) [Example 37, 6-(3-Chlorophenyl)-4-methyl-4-propyn-1-yl-1,4-dihydro-benzo[d][1,3]oxazin-2-one]",
198 to 200 °C,"O=C1Nc2ccc(-c3cccc(Cl)c3)cc2C(C2CC2)(C2CC2)O1 [Example 43, 6-(3-Chloro-phenyl)-4,4-dicyclopropyl-1,4-dihydro-benzo[d][1,3]oxazin-2-one]",
193 to 194 °C,"CCC1(CC)OC(=O)Nc2ccc(-c3cccc([N+](=O)[O-])c3)cc21 [Example 24, 4,4-Diethyl-6-(3-nitrophenyl)-1,4-dihydrobenzo[d][1,3]oxazin-2-one]",
185 to 186 °C,"C#CC1(C)OC(=O)Nc2ccc(-c3cccc(Cl)c3)cc21 (centres unmarked) [Example 38, 6-(3-Chlorophenyl)-4-ethynyl-4-methyl-1,4-dihydro-benzo[d][1,3]oxazin-2-one]",
256 to 258 °C,"Cc1cc(C#N)cc(-c2ccc3c(c2)C(C)(C)OC(=O)N3)c1 [Example 58, 3-(4,4-Dimethyl-2-oxo-1,4-dihydro-2H-benzo[d][1,3]oxazin-6-yl)-5-methyl-benzonitrile]",
212 to 213 °C,"CC1(C)OC(=O)Nc2ccc(-c3cccc(C#CC#N)c3)cc21 [Example 75, 3-[3-(4,4-Dimethyl-2-oxo-1,4-dihydro-2H-benzo[d][1,3]oxazin-6-yl)-phenyl]-propynenitrile]",
242 to 244 °C (dec.),"CC1(C)OC(=O)Nc2ccc(-c3cccc(S(N)(=O)=O)c3)cc21 [Example 140, 3-(4,4-Dimethyl-2-oxo-1,4-dihydro-2H-benzo[d][1,3]-oxazin-6-yl)benzenesulfonamide]",
150 to 151 °C,"CCC1(CC)OC(=O)Nc2ccc(-c3cccc(Cl)c3)cc21 [Example 25, 6-(3-Chlorophenyl)-4,4-diethyl-1,4-dihydrobenzo[d][1,3]oxazin-2-one]",
231 to 233 °C,"Cc1cc(Br)cc(-c2ccc3c(c2)C(C)(C)OC(=O)N3)c1 [Example 56, 6-(3-Bromo-5-methyl-phenyl)-4,4-dimethyl-1,4-dihydrobenzo-[d][1,3]oxazin-2-one]",
158 to 159 °C,"CC1(C)OC(=O)Nc2ccc(-c3cccc(Cl)c3)cc21 [Example 5, 6-(3-Chlorophenyl)-4,4-dimethyl-1,4-dihydrobenzo[d][1,3]oxazin-2-one]",

# Second part, the molecule before the results:
Structure (SMILES),melting point,inhibition in vivo at 10 mg/kg [1] [%]
"CC1(C)OC(=O)Nc2ccc(-c3ccc([N+](=O)[O-])[nH]3)cc21 [Example 96, 4,4-Dimethyl-6-(5-nitro-1H-pyrrol-2-yl)-1,4-dihydrobenzo[d][1,3]oxazin-2-one]",265 °C (dec.),
"CC1(C)OC(=O)Nc2ccc(-c3coc(C#N)c3)cc21 [Example 23, 4-(4,4-Dimethyl-2-oxo-1,4-dihydro-2H-benzo[d][1,3]oxazin-6-yl)-furan-2-carbonitrile]",255 to 256 °C,
"Cc1cc(C#N)sc1-c1ccc2c(c1)C1(CCCCC1)OC(=O)N2 [Compound 10, 5-(1,2-Dihydro-2-oxospiro[4H-3,1-benzoxazine-4,1-cyclohexan]-6-yl)-4-methyl-2-thiophenecarbonitrile]",200 to 203 °C,50
"O=C1Nc2ccc(-c3cc(F)cc(Br)c3)cc2C(C2CC2)(C2CC2)O1 [Example 54, 6-(3-Bromo-5-fluoro-phenyl)-4,4-dicyclopropyl-1,4-dihydrobenzo-[d][1,3]oxazin-2-one]",228 to 229 °C,
"CC1(C)OC(=O)Nc2ccc(-c3sccc3C#N)cc21 [Example 91, 2-(4,4-Dimethyl-2-oxo-1,4-dihydro-2H-benzo[d][1,3]oxazin-6-yl)-thiophene-3-carbonitrile]",200 to 202 °C,
"Cc1cc(C#N)sc1-c1ccc2c(c1)C(C)(C)OC(=O)N2 [Compound 18, 5-(4,4-Dimethyl-2-oxo-1,4-dihydro-2H-benzo[d][1,3]oxazin-6-yl)-4-methyl-thiophene-2-carbonitrile]",195 to 200 °C,
"CC1(C)OC(=O)Nc2ccc(-c3cc(C#N)cc(C#N)c3)cc21 [Example 80, 5-(4,4-Dimethyl-2-oxo-1,4-dihydro-2H-benzo[d][1,3]oxazin-6-yl)-isophthalonitrile]",288 to 289 °C,
"N#Cc1ccc(-c2ccc3c(c2)C2(CCCCC2)OC(=O)N3)s1 [Compound 11, 5-(1,2-Dihydro-2-oxospiro[4H-3,1-benzoxazine-4,1-cyclohexan]-6-yl)-2-thiophenecarbonitrile]",,50
"CC1(C)OC(=O)Nc2ccc(-c3coc(C=NO)c3)cc21 [Example 145, 4-(1,4-Dihydro-4,4-dimethyl-2-oxo-2H-3,1-benzoxazin-6-yl)-2-furancarboxaldehyde oxime]",236 to 238 °C,
"CC1(C)OC(=O)Nc2ccc(-c3cc(F)cc(-c4ccsc4)c3)cc21 [Example 93, 6-(3-Fluoro-5-thiophen-3-yl-phenyl)-4,4-dimethyl-1,4-dihydro-benzo[d][1,3]oxazin-2-one]",200 to 203 °C,
"CC(C)(C)OC(=O)n1cccc1-c1ccc2c(c1)C(C)(C)OC(=O)N2 [Example 94, 2-(4,4-Dimethyl-2-oxo-1,4dihydro-2H-benzo[d][1,3]oxazin-6-yl)-pyrrole-1-carboxylic acid tert-butyl ester]",176 °C,
